Laboratory results from patent publication US20260184726A1, “HETEROCYCLIC COMPOUNDS AS KINASE INHIBITORS, COMPOSITIONS, AND METHODS OF USE THEREOF” (JS INNOMED HOLDINGS LTD., priority 2022, published 2026).

Key:
BAF3 cells = experiment: BAF3 Cell Proliferation Assay (CellTiter-Glo, without RET driven, IL-3); type: cell-based; conditions: Mus musculus; growth inhibition in BAF3 cells, 72 hours, with IL-3; read-out: BAF3 Cellular Activity
Protocol: Compounds disclosed herein were tested for the inhibition BAF3 cells proliferation without RET driven by CellTiter-Glo assay. In this assay, a complete media was prepared by adding 10% fetal bovine serum and 1 ng/ml IL-3 to RPMI-1640 medium (Life technology) for BAF3 cells. BAF3 cells were added to each of 88 wells of a 96 well plate at a seeding density of 2,000 cells/well/95 μL. The cells were allowed to attach to the plate by incubating at 37° C. for 24 hours. The compound was dissolved in DMSO (SIGMA). A solution of test compound was prepared in complete media by serial dilution to obtain the following concentrations: 200 μM, 66.7 μM, 22.2 μM, 7.4 μM, 2.5 μM, 0.82 μM, 0.27 μM, 0.091 μM and […]. The test compound solution (5 μL) was added to each of 80 cell-containing wells. The final concentrations of the compound were following: 10 μM, 3.33 μM, 1.11 μM, 0.37 μM, 0.12 μM, 0.041 μM, 0.014 μM, 0.0046 μM and 0.0015 μM. The final concentration of DMSO is 0.1%. To the 8 remaining cell-containing wells, only complete media (containing 0.1% DMSO) was added to form a control group in order to measure maximal proliferation. To the remaining 8 empty wells, complete media was added to for a vehicle control group in order to measure background. The plates were incubated at 37° C. for 72 hours. 50 μl of CellTiter-Glo® Reagent was added to each well. The contents were mixed for 2 minutes on an orbital shaker to induce cell lysis, and then were incubated at room temperature for 10 minutes to stabilize luminescent signal. Luminescence was recorded on Paradigm. Cell viability (CV %) was calculated relative to vehicle (DMSO) treated control wells. The IC50 was calculated using GraphPad Prism.

BAF3-KIF5B-RET cells = biological target: T1, BAF3-KIF5B-RET cells (Homo sapiens, UniProt P07949); experiment: BAF3-KIF5B-RET Cell Proliferation Assay (CellTiter-Glo); type: cell-based; conditions: growth inhibition, 72 hours; Table 2; read-out: BA/F3-KIF5B-RET Cellular activity
T1 construct: fused on or other part: P33176 (Kinesin-1 heavy chain)
T1 sequence (P07949 whole entry, change not shown, the tested form may be a part): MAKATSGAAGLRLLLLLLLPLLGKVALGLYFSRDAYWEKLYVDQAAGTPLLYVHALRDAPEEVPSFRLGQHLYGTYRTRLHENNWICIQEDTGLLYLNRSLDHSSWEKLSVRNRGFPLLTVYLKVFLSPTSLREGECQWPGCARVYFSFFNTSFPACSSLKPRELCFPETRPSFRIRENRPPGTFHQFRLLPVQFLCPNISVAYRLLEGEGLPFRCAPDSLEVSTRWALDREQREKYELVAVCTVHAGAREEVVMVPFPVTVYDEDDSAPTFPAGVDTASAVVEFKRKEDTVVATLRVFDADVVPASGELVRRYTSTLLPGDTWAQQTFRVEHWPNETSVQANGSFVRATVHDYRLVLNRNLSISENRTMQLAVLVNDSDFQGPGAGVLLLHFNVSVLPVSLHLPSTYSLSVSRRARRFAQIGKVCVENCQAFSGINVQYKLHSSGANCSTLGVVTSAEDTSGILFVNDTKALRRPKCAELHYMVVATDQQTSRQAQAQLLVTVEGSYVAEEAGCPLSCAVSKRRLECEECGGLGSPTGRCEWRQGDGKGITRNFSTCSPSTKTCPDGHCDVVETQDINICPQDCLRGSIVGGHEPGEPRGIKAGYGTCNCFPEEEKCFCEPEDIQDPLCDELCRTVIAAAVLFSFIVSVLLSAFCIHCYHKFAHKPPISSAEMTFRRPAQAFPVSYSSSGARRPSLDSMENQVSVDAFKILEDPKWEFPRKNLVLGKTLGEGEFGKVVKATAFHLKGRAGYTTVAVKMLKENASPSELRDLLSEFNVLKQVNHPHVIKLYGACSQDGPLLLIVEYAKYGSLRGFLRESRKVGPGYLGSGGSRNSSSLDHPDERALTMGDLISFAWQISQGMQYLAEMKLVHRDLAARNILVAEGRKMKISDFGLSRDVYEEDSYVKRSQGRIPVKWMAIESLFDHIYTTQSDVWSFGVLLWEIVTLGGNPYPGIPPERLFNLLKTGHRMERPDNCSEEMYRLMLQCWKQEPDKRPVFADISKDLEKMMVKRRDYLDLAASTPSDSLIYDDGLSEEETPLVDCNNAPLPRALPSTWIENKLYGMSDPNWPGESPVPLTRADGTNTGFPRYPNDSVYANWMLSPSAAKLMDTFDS
Protocol: Compounds disclosed herein were tested for the inhibition of RET by a cancer cell proliferation assay commonly known as CellTiter-Glo assay. In this assay, a complete media was prepared by adding 10% fetal bovine serum to RPMI-1640 medium (Life technology) for RET-driven cancer cells (BAF3-FIF5B-RET, Ba/F3-KIF5B-RET-G810R, Ba/F3-TEL-RET-M918T or Ba/F3-KIF5B-RET-V804M). Individual RET-driven type of cells were added to each of 88 wells of a 96 well plate at a seeding density of 2,000 cells/well/95 μL. The cells were allowed to attach to the plate by incubating at 37° C. for 24 hours. The compound was dissolved in DMSO (SIGMA). A solution of test compound was prepared in complete media by serial dilution to obtain the following concentrations: 20 μM, 6.67 μM, 2.22 μM, 0.74 μM, 0.25 μM, 0.082 μM, 0.027 μM, 0.0091 μM and 0.0030 μM. The test compound solution (5 μL) was added to each of 80 cell-containing wells. The final concentrations of the compound were following: 1 μM, 0.33 μM, 0.11 μM, 0.037 μM, 0.012 μM, 0.0041 μM, 0.0014 μM, 0.00046 μM and 0.00015 μM. The final concentration of DMSO is 0.1%. To the 8 remaining cell-containing wells, only complete media (containing 0.1% DMSO) was added to form a control group in order to measure maximal proliferation. To the remaining 8 empty wells, complete media was added to for a vehicle control group in order to measure background. The plates were incubated at 37° C. for 72 hours. 50 μl of CellTiter-Glo® Reagent was added to each well. Mix contents for 2 minutes on an orbital shaker to induce cell lysis. Incubate at room temperature for 10 minutes to stabilize luminescent signal. Record luminescence on Paradigm. Cell viability (CV %) was calculated relative to vehicle (DMSO) treated control wells. The IC50 was calculated using GraphPad Prism.

Row | SMILES | IC50 (BAF3 cells) | GI50 (BAF3-KIF5B-RET cells)
1 | COc1ccc(CN2C3CC2CN(c2cnc(-c4cc(-c5ccc(C(C)(C)O)cn5)cn5ncc(C#N)c45)cn2)C3)cn1 [Example 1, 6-(5-(2-hydroxypropan-2-yl)pyridin-2-yl)-4-(5-(6-((6-methoxypyridin-3-yl)methyl)-3,6-diazabicyclo[3.1.1]heptan-3-yl)pyrazin-2-yl)pyrazolo[1,5-a]pyridine-3-carbonitrile] | 1.02 µM | 0.0018 µM
2 | COc1ccc(C(=O)NC23CC4CC(C2)N(c2cnc(-c5cc(-c6ccc(C(C)(C)O)cn6)cn6ncc(C#N)c56)cn2)C(C4)C3)cn1 [Example 2, N-((1R,3S,5s,7s)-2-(5-(3-cyano-6-(5-(2-hydroxypropan-2-yl)pyridin-2-yl)pyrazolo[1,5-a]pyridin-4-yl)pyrazin-2-yl)-2-azaadamantan-5-yl)-6-methoxynicotinamide] | 0.362 µM | 0.0089 µM
3 | CC(C)(O)c1ccc(-c2cc(-c3ccc(N4C[C@@H]5[C@H](C4)[C@@H]5NC(=O)c4ncccc4Cl)nc3)c3c(C#N)cnn3c2)nc1 [Example 3, 3-chloro-N-((1R,5S,6r)-3-(5-(3-cyano-6-(5-(2-hydroxypropan-2-yl)pyridin-2-yl)pyrazolo[1,5-a]pyridin-4-yl)pyridin-2-yl)-3-azabicyclo[3.1.0]hexan-6-yl)picolinamide] | > 10 µM | 0.11 µM
4 | CC(C)(O)c1ccc(-c2cc(-c3cnc(N4C[C@@H]5C[C@@](C)(NC(=O)c6ncccc6Cl)C[C@@H]5C4)cn3)c3c(C#N)cnn3c2)nc1 [Example 6, 3-chloro-N-((3aR,5s,6aS)-2-(5-(3-cyano-6-(5-(2-hydroxypropan-2-yl)pyridin-2-yl)pyrazolo[1,5-a]pyridin-4-yl)pyrazin-2-yl)-5-methyloctahydrocyclopenta[c]pyrrol-5-yl)picolinamide] | 0.0386 µM | 0.0035 µM
5 | COc1ccc(CN2C3CC2CN(c2ccc(-c4cc(-c5cncc(C(C)(C)O)c5)cn5ncc(C#N)c45)cn2)C3)cn1 [Example 7, 6-(5-(2-hydroxypropan-2-yl)pyridin-3-yl)-4-(6-(6-((6-methoxypyridin-3-yl)methyl)-3,6-diazabicyclo[3.1.1]heptan-3-yl)pyridin-3-yl)pyrazolo[1,5-a]pyridine-3-carbonitrile] | > 10 µM | 0.0481 µM
6 | COc1ccc(CN2C3CC2CN(c2ccc(-c4cc(-c5ccc(C(C)(C)N)nc5)cn5ncc(C#N)c45)cn2)C3)cn1 [Example 14, 6-(6-(2-aminopropan-2-yl)pyridin-3-yl)-4-(6-(6-((6-methoxypyridin-3-yl)methyl)-3,6-diazabicyclo[3.1.1]heptan-3-yl)pyridin-3-yl)pyrazolo[1,5-a]pyridine-3-carbonitrile] | 1 µM | 0.0028 µM
7 | COc1ccc(CN2C3CC2CN(c2ccc(-c4cc(-c5cnc(C(C)(C)O)cn5)cn5ncc(C#N)c45)cn2)C3)cn1 [Example 15, 6-(5-(2-hydroxypropan-2-yl)pyrazin-2-yl)-4-(6-(6-((6-methoxypyridin-3-yl)methyl)-3,6-diazabicyclo[3.1.1]heptan-3-yl)pyridin-3-yl)pyrazolo[1,5-a]pyridine-3-carbonitrile] | 2.6 µM | 0.0039 µM
8 | COc1ccc(CN2C3CC2CN(c2ccc(-c4cc(-c5ccc(C(C)(C)N)cn5)cn5ncc(C#N)c45)cn2)C3)cn1 [Example 16, 6-(5-(2-aminopropan-2-yl)pyridin-2-yl)-4-(6-(6-((6-methoxypyridin-3-yl)methyl)-3,6-diazabicyclo[3.1.1]heptan-3-yl)pyridin-3-yl)pyrazolo[1,5-a]pyridine-3-carbonitrile] | 1.08 µM | 0.0022 µM
9 | COc1ccc(CN2C3CC2CN(c2ccc(-c4cc(-c5ccc(C6(N)CC6)cn5)cn5ncc(C#N)c45)cn2)C3)cn1 [Example 17, 6-(5-(1-aminocyclopropyl)pyridin-2-yl)-4-(6-(6-((6-methoxypyridin-3-yl)methyl)-3,6-diazabicyclo[3.1.1]heptan-3-yl)pyridin-3-yl)pyrazolo[1,5-a]pyridine-3-carbonitrile] | 2.77 µM | 0.0042 µM
10 | COc1ccc(CN2C3CC2CN(c2ccc(-c4cc(-c5ccc(C(C)(C)O)nn5)cn5ncc(C#N)c45)cn2)C3)cn1 [Example 19, 6-(6-(2-hydroxypropan-2-yl)pyridazin-3-yl)-4-(6-(6-((6-methoxypyridin-3-yl)methyl)-3,6-diazabicyclo[3.1.1]heptan-3-yl)pyridin-3-yl)pyrazolo[1,5-a]pyridine-3-carbonitrile] | 1.26 µM | 0.0017 µM
11 | COc1ccc(CN2C3CC2CN(c2cnc(-c4cc(-c5ccc(C(C)(C)O)nn5)cn5ncc(C#N)c45)cn2)C3)cn1 [Example 20, 6-(6-(2-hydroxypropan-2-yl)pyridazin-3-yl)-4-(5-(6-((6-methoxypyridin-3-yl)methyl)-3,6-diazabicyclo[3.1.1]heptan-3-yl)pyrazin-2-yl)pyrazolo[1,5-a]pyridine-3-carbonitrile] | 1.48 µM | 0.0067 µM
12 | CC(C)(O)c1ccc(-c2cc(-c3ccc(N4C[C@@H]5[C@H](C4)[C@H]5NC(=O)c4ncccc4Cl)nc3)c3c(C#N)cnn3c2)nc1 [Example 21, 3-chloro-N-((1R,5S,6s)-3-(5-(3-cyano-6-(5-(2-hydroxypropan-2-yl)pyridin-2-yl)pyrazolo[1,5-a]pyridin-4-yl)pyridin-2-yl)-3-azabicyclo[3.1.0]hexan-6-yl)picolinamide] | 0.351 µM | 0.0288 µM
13 | COc1ccc(CN2C3CC2CN(c2ccc(-c4cc(-c5ccc(C(C)(C)O)cc5)cn5ncc(C#N)c45)cn2)C3)cn1 [Example 22, 6-(4-(2-hydroxypropan-2-yl)phenyl)-4-(6-(6-((6-methoxypyridin-3-yl)methyl)-3,6-diazabicyclo[3.1.1]heptan-3-yl)pyridin-3-yl)pyrazolo[1,5-a]pyridine-3-carbonitrile] | 0.756 µM | 0.0007 µM
14 | COc1ccc(CN2C3CC2CN(c2ccc(-c4cc(-c5ncc(C(C)(C)O)cc5F)cn5ncc(C#N)c45)cn2)C3)cn1 [Example 24, 6-(3-fluoro-5-(2-hydroxypropan-2-yl)pyridin-2-yl)-4-(6-(6-((6-methoxypyridin-3-yl)methyl)-3,6-diazabicyclo[3.1.1]heptan-3-yl)pyridin-3-yl)pyrazolo[1,5-a]pyridine-3-carbonitrile] | 2.54 µM | 0.0035 µM
15 | COc1ccc(C(=O)N2C3CC2CN(c2ccc(-c4cc(-c5ccc(C(C)(C)O)cn5)cn5ncc(C#N)c45)cn2)C3)cn1 [Example 25, 6-(5-(2-hydroxypropan-2-yl)pyridin-2-yl)-4-(6-(6-(6-methoxynicotinoyl)-3,6-diazabicyclo[3.1.1]heptan-3-yl)pyridin-3-yl)pyrazolo[1,5-a]pyridine-3-carbonitrile] | 6.65 µM | 0.0027 µM
16 | COc1ccc(CN2C3CC2CN(c2ccc(-c4cc(-c5cc(C(C)(C)O)nn5C)cn5ncc(C#N)c45)cn2)C3)cn1 [Example 26, 6-(3-(2-hydroxypropan-2-yl)-1-methyl-1H-pyrazol-5-yl)-4-(6-(6-((6-methoxypyridin-3-yl)methyl)-3,6-diazabicyclo[3.1.1]heptan-3-yl)pyridin-3-yl)pyrazolo[1,5-a]pyridine-3-carbonitrile] | > 10 µM | 0.0468 µM
